Source: ChEMBL document CHEMBL5729595, “MASP-2 inhibitors and methods of use” (2023)

Experiment: Enzymatic Assay for MASP-2: The assay was run at room temperature in an assay buffer containing 20 mM Hepes, pH 7.4, 140 mM NaCl and 0.1% Tween 20. Assay parameters were adjusted such that the assay was linear with respect to time, enzyme and substrate concentrations. Under these optimized assays conditions, IC50 values were equivalent to Ki values, except in a few cases of “tight binding” inhibitors. Cases of “tight binding” or possible “slow binding” inhibitors were handled by the methods described in Copeland R. A. (2013) Evaluation of Enzyme Inhibitors in Drug Discovery. 2nd Ed., John Wiley and Sons, Inc., Chapters 5-7.

## C[C@H](NC(=O)[C@H]1C[C@H](c2ccccc2)CCN1)C(=O)NCc1ccc(C(=N)N)cc1
  Ki: < 500 nM
